In article PMC2174006 (The Journal of Cell Biology, 2002):

Target: T1, Rab32 (Homo sapiens, UniProt Q13637)
T1 sequence (Q13637 1-225): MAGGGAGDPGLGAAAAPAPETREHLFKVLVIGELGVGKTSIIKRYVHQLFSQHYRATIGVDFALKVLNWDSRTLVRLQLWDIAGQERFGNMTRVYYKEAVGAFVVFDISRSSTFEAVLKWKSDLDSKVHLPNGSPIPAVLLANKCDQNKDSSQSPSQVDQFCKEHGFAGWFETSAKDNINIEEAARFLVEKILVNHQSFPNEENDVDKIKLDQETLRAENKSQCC
Assay: radiolabelled nucleotide dissociation
Type: binding
Details: labelled compound ([3H]GDP); pH 7.5, 50 mM Tris-HCl, high magnesium; GST fusion

t 1/2 (dissociation): 7.5 min
SMILES: Nc1nc2c(ncn2[C@@H]2O[C@H](COP(=O)(O)OP(=O)(O)O)[C@@H](O)[C@H]2O)c(=O)[nH]1 [GDP]
